Legend:
[1] = molecular target: T1, Mitogen-activated protein kinase 9 (Homo sapiens, UniProt P45984); assay: Inhibition of JNK2-alpha-2 kinase
MAP kinase p38 [2] = molecular target: T2, MAP kinase p38 (Homo sapiens, UniProt O15264+Q15759+Q16539+P53778); assay: Inhibition of Mitogen-activated protein kinase p38; format: protein assay
[3] = molecular target: T1, Mitogen-activated protein kinase 9; assay: Inhibition of JNK2-alpha-1 kinase
[4] = molecular target: Tyrosine-protein kinase Lck (Homo sapiens) (UniProt P06239); assay: Inhibition of LCK1 kinase at 15000 nM
Chain of Tyrosine-protein kinase Lck (Homo sapiens) (P06239 2-509 limits assumed): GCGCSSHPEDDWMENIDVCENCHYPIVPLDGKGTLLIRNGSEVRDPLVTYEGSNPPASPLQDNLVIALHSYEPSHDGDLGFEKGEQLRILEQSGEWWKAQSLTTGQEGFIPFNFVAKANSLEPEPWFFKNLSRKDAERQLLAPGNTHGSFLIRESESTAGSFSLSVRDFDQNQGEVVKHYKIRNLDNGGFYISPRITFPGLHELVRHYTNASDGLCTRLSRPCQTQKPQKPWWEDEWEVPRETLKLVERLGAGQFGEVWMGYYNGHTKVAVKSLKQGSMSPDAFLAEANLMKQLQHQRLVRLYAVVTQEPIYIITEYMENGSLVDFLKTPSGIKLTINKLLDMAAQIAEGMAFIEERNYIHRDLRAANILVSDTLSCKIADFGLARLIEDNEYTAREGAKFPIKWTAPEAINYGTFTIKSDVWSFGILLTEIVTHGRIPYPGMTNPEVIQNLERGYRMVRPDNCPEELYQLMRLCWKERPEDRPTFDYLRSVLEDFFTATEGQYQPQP

[5] = molecular target: RAF proto-oncogene serine/threonine-protein kinase (Homo sapiens) (UniProt P04049); assay: Inhibition of c-Raf kinase at 5000 nM
Chain of RAF proto-oncogene serine/threonine-protein kinase (Homo sapiens) (P04049 whole entry): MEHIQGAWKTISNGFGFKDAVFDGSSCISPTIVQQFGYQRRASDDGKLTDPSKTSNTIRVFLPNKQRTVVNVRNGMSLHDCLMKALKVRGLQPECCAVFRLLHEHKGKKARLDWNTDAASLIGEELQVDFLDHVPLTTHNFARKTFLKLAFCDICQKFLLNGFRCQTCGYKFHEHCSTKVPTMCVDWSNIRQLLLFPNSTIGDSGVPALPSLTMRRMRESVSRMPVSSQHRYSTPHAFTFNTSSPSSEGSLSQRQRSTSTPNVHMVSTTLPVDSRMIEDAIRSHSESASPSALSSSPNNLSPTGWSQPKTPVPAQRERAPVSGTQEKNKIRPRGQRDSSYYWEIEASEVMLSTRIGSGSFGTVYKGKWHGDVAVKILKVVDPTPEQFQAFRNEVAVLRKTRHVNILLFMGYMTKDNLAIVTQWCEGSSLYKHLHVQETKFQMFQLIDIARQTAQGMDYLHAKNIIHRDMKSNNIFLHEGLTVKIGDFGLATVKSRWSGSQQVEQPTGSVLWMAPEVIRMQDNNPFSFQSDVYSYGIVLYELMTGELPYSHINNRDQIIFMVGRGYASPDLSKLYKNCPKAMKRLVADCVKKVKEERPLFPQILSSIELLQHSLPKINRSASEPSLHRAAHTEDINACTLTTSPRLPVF

MAP kinase p38 [6] = molecular target: T2, MAP kinase p38; assay: Inhibition of Mitogen-activated protein kinase p38 at 1000 nM; format: protein assay

T1 sequence (P45984 whole entry): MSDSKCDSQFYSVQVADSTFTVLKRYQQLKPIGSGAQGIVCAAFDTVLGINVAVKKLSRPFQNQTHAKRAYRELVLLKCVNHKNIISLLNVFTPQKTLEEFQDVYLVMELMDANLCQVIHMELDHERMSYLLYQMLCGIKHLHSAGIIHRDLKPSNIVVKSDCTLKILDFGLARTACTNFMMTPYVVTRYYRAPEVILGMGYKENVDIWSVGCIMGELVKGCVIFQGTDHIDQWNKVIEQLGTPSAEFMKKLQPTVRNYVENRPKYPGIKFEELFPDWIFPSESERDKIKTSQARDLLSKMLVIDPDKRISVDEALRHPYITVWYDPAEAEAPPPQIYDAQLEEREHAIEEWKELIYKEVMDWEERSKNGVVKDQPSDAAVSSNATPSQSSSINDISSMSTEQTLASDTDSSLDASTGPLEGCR

Compound | IC50 (MAP kinase p38 [2]) | also measured
C[C@H](Nc1nccc(-c2cc(N3CCOCC3)nnc2-c2cccc(C(F)(F)F)c2)n1)c1ccccc1 | 2.6 nM | IC50 [1]: 1400 nM; IC50 [3]: 820 nM; inhibition [4]: 22%; inhibition [5]: 29%
C[C@H](Nc1nccc(-c2cc(N3CCN(C)CC3)nnc2-c2cccc(C(F)(F)F)c2)n1)c1ccccc1 | 1.9 nM | –
C[C@H](Nc1nccc(-c2cc(N(C)CCN(C)C)nnc2-c2cccc(C(F)(F)F)c2)n1)c1ccccc1 | 1.4 nM | –
C[C@H](Nc1nccc(-c2nnc(C3CCNCC3)cc2-c2cccc(C(F)(F)F)c2)n1)c1ccccc1 | – | inhibition (MAP kinase p38 [6]): 4.81%
C[C@H](Nc1nccc(-c2cc(N(C)C)nnc2-c2cccc(C(F)(F)F)c2)n1)c1ccccc1 | 2.5 nM | –
C[C@H](Nc1nccc(-c2cc(N3CCCCC3)nnc2-c2cccc(C(F)(F)F)c2)n1)c1ccccc1 | 20.1 nM | –

The next lines start with results.

IC50 (MAP kinase p38 [2]) | Compound | also measured
12000 nM | C[C@H](Nc1nccc(-c2nc(C3CCNCC3)n(C)c2-c2cccc(C(F)(F)F)c2)n1)c1ccccc1 | –
0.6 nM | C[C@H](Nc1nccc(-c2cc(N3CCNCC3)nnc2-c2cccc(C(F)(F)F)c2)n1)c1ccccc1 | –
7.4 nM | CC1CCN(c2cc(-c3ccnc(N[C@@H](C)c4ccccc4)n3)c(-c3cccc(C(F)(F)F)c3)nn2)CC1 | –
